Data taken from PMC4268426 (Contraception, 2014).
Entries after “also recorded” stand apart in the source; their conditions may differ. Where two headings read alike, the source gives them in different places.

Legend:
[1] = clinical; conditions: female, human, in vivo, po
[2] = human, in vivo
[3] = pharmacokinetics reported as unaffected; cited from earlier work

C#C[C@]1(O)CC[C@H]2[C@@H]3CCC4=CC(=O)CC[C@@H]4[C@H]3CC[C@@]21C [norethindrone]
Tmax [1]: 1.32 h | Vd/F [1]: 313 L | AUC(0-inf) ([1]; 0.35 mg): 33.8 ng·h/mL | AUC(0-t) ([1]; 0.35 mg): 16.7 ng·h/mL | Tmax ([1]; 0.35 mg): 1.86 h | Vd/F ([1]; 0.35 mg): 564 L | increase in AUC0-24 ([2]; female): 50% | increase in AUC0-∞ ([2]; female): 35% | Cmax ([2]; female, po, 0.35 mg): 2.09 (1.49-3.06) ng/mL | CL/F ([2]; po): 7.59 (6.22-10.00) L/hr | CL/F ([2]; po, 0.35 mg): 10.35 (8.55-12.38) L/hr | adverse events (either group (control and treatment)): no reports of adverse events | concentration at 24 h (female, human, in vivo, po, 0.35 mg): 0.27 ng/mL | change in half-life (treatment group compared to control group): unaltered; also recorded: no alteration; also recorded: no change | decrease in AUC with obesity (trend) [3]: ~ 20% | decrease in Cmax with obesity (trend) [3]: ~ 20%
